Test [1] has as its target T1, SMYD3 (Homo sapiens (Human), UniProt Q9H7B4). In words: SMYD3 cell assay (Trimethyl-MEKK2 In-Cell Western in 293T/17 cells). It counts as cell-based. The settings on record: read-out: SMYD3 Cell IC50*. An outline of the steps: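 In-Cell Western ratio of trimethyl-Lys260 MEKK2 to anti-flag signal; percent inhibition from DMSO and maximum-inhibition controls, IC50 by non-linear regression, triplicates.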

The target in test [2] is T1, SMYD3. Description: SMYD3 biochemical assay (SPA, 3H-SAM methylation of MEKK2 protein substrate). The settings on record: read-out: SMYD3 Biochem IC50*. An outline of the steps:
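Native full-length human SMYD3 (E. coli-expressed, tags removed) was preincubated with compound for 30 min at room temperature in 25 mM Tris-Cl pH 8.0, 1 mM TCEP, 0.005% BSG, 0.005% Tween 20. Reaction was started with 3H-SAM plus GST-MEKK2, quenched with 100 uM unlabeled SAM, and read by SPA scintillation counting.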

A word on the IC50: it is the concentration at which inhibition is half-maximal.

T1 sequence (Q9H7B4 whole entry): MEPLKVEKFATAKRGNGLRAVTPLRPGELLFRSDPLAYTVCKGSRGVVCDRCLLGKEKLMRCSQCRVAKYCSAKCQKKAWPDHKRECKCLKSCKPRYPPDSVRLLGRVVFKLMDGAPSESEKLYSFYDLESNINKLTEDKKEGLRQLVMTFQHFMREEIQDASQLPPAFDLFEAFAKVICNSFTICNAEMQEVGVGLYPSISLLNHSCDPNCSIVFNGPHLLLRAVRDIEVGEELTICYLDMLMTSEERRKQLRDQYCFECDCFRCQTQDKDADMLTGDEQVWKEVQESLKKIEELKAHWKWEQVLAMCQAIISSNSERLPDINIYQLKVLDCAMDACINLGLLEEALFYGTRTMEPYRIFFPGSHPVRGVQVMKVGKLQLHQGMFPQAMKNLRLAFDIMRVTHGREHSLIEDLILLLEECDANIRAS

Consider `NC1[C@@H]2CC[C@H]1CN(S(=O)(=O)N1[C@@H]3CC[C@H]1CC(NC(=O)c1cc(C4CC4)on1)C3)C2` (stereo partly drawn) [compound 891, N-((1R,3R,5S)-8-(((1R,5S)-8-amino-3-azabicyclo[3.2.1]octan-3-yl)sulfonyl)-8-azabicyclo[3.2.1]octan-3-yl)-5-cyclopropylisoxazole-3-carboxamide], for which the IC50 in test [1] amounted to 145 nM; in test [2] it was 13.3 nM.

For the compound `O=C(N[C@H]1C[C@H]2CC[C@@H](C1)N2S(=O)(=O)N1CCC(NCc2ccc(C(F)(F)F)cc2)CC1)c1cc(C2CC2)on1` [compound 892, 5-cyclopropyl-N-((1R,3r,5S)-8-((4-((4-(trifluoromethyl)benzyl)amino)piperidin-1-yl)sulfonyl)-8-azabicyclo[3.2.1]octan-3-yl)isoxazole-3-carboxamide], the values for the concentration for half-maximal inhibition (IC50) in test [1] and in test [2] were 268 nM and 13.5 nM, respectively.

Turning to `CN1CCC(NS(=O)(=O)N2[C@@H]3CC[C@H]2C[C@@H](NC(=O)c2cc(C4CC4)on2)C3)CC1` [compound 893, 5-cyclopropyl-N-((1R,3r,5S)-8-(N-(1-methylpiperidin-4-yl)sulfamoyl)-8-azabicyclo[3.2.1]octan-3-yl)isoxazole-3-carboxamide], the half-maximal inhibitory concentration (IC50) is 239 nM in test [1] and 13.7 nM in test [2].

As for `CN1CCC([C@@H](Cc2ccccc2)S(=O)(=O)N2[C@@H]3CC[C@H]2C[C@@H](NC(=O)c2cc(C4CC4)on2)C3)CC1` [compound 894, 5-cyclopropyl-N-((1R,3R,5S)-8-(((R)-1-(1-methylpiperidin-4-yl)-2-phenylethyl)sulfonyl)-8-azabicyclo[3.2.1]octan-3-yl)isoxazole-3-carboxamide], the IC50 turned out to be 280 nM in test [1] and 13.9 nM in test [2].

In the case of `CN1CC2CCC1CN2S(=O)(=O)N1[C@@H]2CC[C@H]1C[C@@H](NC(=O)c1cc(C3CC3)on1)C2` [compound 895, 5-cyclopropyl-N-((1R,3r,5S)-8-((5-methyl-2,5-diazabicyclo[2.2.2]octan-2-yl)sulfonyl)-8-azabicyclo[3.2.1]octan-3-yl)isoxazole-3-carboxamide], the IC50 in test [1] amounted to 186 nM; in test [2], 13.9 nM.

In the case of `CC1(N)CCC(S(=O)(=O)N2[C@@H]3CC[C@H]2C[C@@H](NC(=O)c2cc(C4CC4)on2)C3)CC1` (stereo partly drawn) [compound 896, N-((1R,3R,5S)-8-(((1r,4R)-4-amino-4-methylcyclohexyl)sulfonyl)-8-azabicyclo[3.2.1]octan-3-yl)-5-cyclopropylisoxazole-3-carboxamide], the IC50 in test [1] came to 86.6 nM; in test [2], 14 nM.

With `O=C(N[C@H]1C[C@H]2CC[C@@H](C1)N2S(=O)(=O)NC1CCNCC1)c1cc(C2CC2)on1` [compound 897, 5-cyclopropyl-N-((1R,3r,5S)-8-(N-(piperidin-4-yl)sulfamoyl)-8-azabicyclo[3.2.1]octan-3-yl)isoxazole-3-carboxamide], the IC50 came to 423 nM in test [1] and 14.1 nM in test [2].

As for `C[C@@H](NC1CCN(S(=O)(=O)N2CC[C@H](NC(=O)c3cc(C4CC4)on3)C[C@@H]2C)CC1)c1ccccc1` [compound 898, 5-cyclopropyl-N-((2S,4S)-2-methyl-1-((4-(((R)-1-phenylethyl)amino)piperidin-1-yl)sulfonyl)piperidin-4-yl)isoxazole-3-carboxamide], the IC50 in test [1] worked out at 240 nM; in test [2], 14.3 nM.

Take `COCCCN(C)C1CCN(S(=O)(=O)N2[C@@H]3CC[C@H]2C[C@@H](NC(=O)c2cc(C4CC4)on2)C3)CC1` [compound 899, 5-cyclopropyl-N-((1R,3r,5S)-8-((4-((3-methoxypropyl)(methyl)amino)piperidin-1-yl)sulfonyl)-8-azabicyclo[3.2.1]octan-3-yl)isoxazole-3-carboxamide]: the concentration for half-maximal inhibition (IC50) in test [1] stood at 168 nM; in test [2], 14.5 nM.

Take `CN[C@H]1CC[C@@H](S(=O)(=O)N2CC[C@@H](NC(=O)c3cc(C4CC4)on3)[C@@H](C)C2)CC1` [compound 900, 5-cyclopropyl-N-((3S,4R)-3-methyl-1-(((1s,4R)-4-(methylamino)cyclohexyl)sulfonyl)piperidin-4-yl)isoxazole-3-carboxamide]: the IC50 came out at 177 nM in test [1] and 14.6 nM in test [2].

`CC1CNCCN1S(=O)(=O)N1[C@@H]2CC[C@H]1C[C@@H](NC(=O)c1cc(C3CC3)on1)C2` (stereo partly drawn) [compound 901, 5-cyclopropyl-N-((1R,3r,5S)-8-((2-methylpiperazin-1-yl)sulfonyl)-8-azabicyclo[3.2.1]octan-3-yl)isoxazole-3-carboxamide]: the concentration for half-maximal inhibition (IC50) was determined as 97.7 nM in test [1] and 15.1 nM in test [2].

`CCC1CNCCN1S(=O)(=O)N1[C@@H]2CC[C@H]1C[C@@H](NC(=O)c1cc(C3CC3)on1)C2` (stereo partly drawn) [compound 902, 5-cyclopropyl-N-((1R,3r,5S)-8-((2-ethylpiperazin-1-yl)sulfonyl)-8-azabicyclo[3.2.1]octan-3-yl)isoxazole-3-carboxamide]: the values for the 50% inhibitory concentration (IC50) in test [1] and in test [2] were 155 nM and 15.2 nM, respectively.

For `CC1CC(CS(=O)(=O)N2CC[C@H](NC(=O)c3cc(C4CC4)on3)C[C@@H]2C)CC(C)N1` (stereo partly drawn) [compound 903, 5-cyclopropyl-N-((2S,4S)-1-(((2,6-dimethylpiperidin-4-yl)methyl)sulfonyl)-2-methylpiperidin-4-yl)isoxazole-3-carboxamide], the IC50 is 277 nM in test [1] and 16.2 nM in test [2].

Consider `O=C(N[C@H]1C[C@H]2CC[C@@H](C1)N2S(=O)(=O)N1CC2CCC(C1)N2Cc1ccccc1)c1cc(C2CC2)on1` [compound 904, N-((1R,3r,5S)-8-((8-benzyl-3,8-diazabicyclo[3.2.1]octan-3-yl)sulfonyl)-8-azabicyclo[3.2.1]octan-3-yl)-5-cyclopropylisoxazole-3-carboxamide], for which the half-inhibitory concentration (IC50) in test [1] is 395 nM; in test [2], 16.9 nM.

As for `C[C@H](NC1CCN(S(=O)(=O)N2CC[C@H](NC(=O)c3cc(C4CC4)on3)C[C@@H]2C)CC1)c1ccccc1` [compound 905, 5-cyclopropyl-N-((2S,4S)-2-methyl-1-((4-(((S)-1-phenylethyl)amino)piperidin-1-yl)sulfonyl)piperidin-4-yl)isoxazole-3-carboxamide], the half-maximal inhibitory concentration (IC50) amounted to 331 nM in test [1] and 17.1 nM in test [2].

Regarding `O=C(N[C@H]1C[C@H]2CC[C@@H](C1)N2S(=O)(=O)N1CCC(N2CCCC2)CC1)c1cc(C2CC2)on1` [compound 906, 5-cyclopropyl-N-((1R,3r,5S)-8-((4-(pyrrolidin-1-yl)piperidin-1-yl)sulfonyl)-8-azabicyclo[3.2.1]octan-3-yl)isoxazole-3-carboxamide], the concentration for half-maximal inhibition (IC50) in test [1] came to 229 nM; in test [2], 17.1 nM.

Regarding `CC1CN(S(=O)(=O)N2[C@@H]3CC[C@H]2C[C@@H](NC(=O)c2cc(C4CC4)on2)C3)C(C)CN1` (stereo partly drawn) [compound 907, 5-cyclopropyl-N-((1R,3r,5S)-8-((2,5-dimethylpiperazin-1-yl)sulfonyl)-8-azabicyclo[3.2.1]octan-3-yl)isoxazole-3-carboxamide], the IC50 in test [1] amounted to 238 nM; in test [2], 17.7 nM.

Regarding `C[C@H]1C[C@@H](NC(=O)c2cc(C3CC3)on2)CCN1S(=O)(=O)N1CCC(NCCN2CCOCC2)CC1` [compound 908, 5-cyclopropyl-N-((2S,4S)-2-methyl-1-((4-((2-morpholinoethyl)amino)piperidin-1-yl)sulfonyl)piperidin-4-yl)isoxazole-3-carboxamide], the IC50 in test [1] was 253 nM; in test [2], 18.4 nM.

With `C[C@H]1C[C@@H](NC(=O)c2cc(C3CC3)on2)CCN1S(=O)(=O)[C@@H]1CCCNC1` [compound 910, 5-cyclopropyl-N-((2S,4S)-2-methyl-1-(((R)-piperidin-3-yl)sulfonyl)piperidin-4-yl)isoxazole-3-carboxamide], the IC50 in test [1] turned out to be 186 nM; in test [2] it was 19 nM.

On to `CC(C)c1cc(C(=O)N[C@H]2C[C@H]3CC[C@@H](C2)N3S(=O)(=O)N2CCC(N)CC2)no1` [compound 911, N-((1R,3r,5S)-8-((4-aminopiperidin-1-yl)sulfonyl)-8-azabicyclo[3.2.1]octan-3-yl)-5-isopropylisoxazole-3-carboxamide], for which the IC50 in test [1] stood at 144 nM; in test [2] it was 20.5 nM.

`O=C(N[C@H]1C[C@H]2CC[C@@H](C1)N2S(=O)(=O)N1CCC(NCCCN2CCOCC2)CC1)c1cc(C2CC2)on1` [compound 912, 5-cyclopropyl-N-((1R,3r,5S)-8-((4-((3-morpholinopropyl)amino)piperidin-1-yl)sulfonyl)-8-azabicyclo[3.2.1]octan-3-yl)isoxazole-3-carboxamide]: the 50% inhibitory concentration (IC50) came to 316 nM in test [1] and 20.9 nM in test [2].

As for `C[C@H]1C[C@@H](NC(=O)c2cc(C3CC3)on2)CCN1S(=O)(=O)[C@H]1CCCNC1` [compound 913, 5-cyclopropyl-N-((2S,4S)-2-methyl-1-(((S)-piperidin-3-yl)sulfonyl)piperidin-4-yl)isoxazole-3-carboxamide], the values for the IC50 in test [1] and in test [2] were 255 nM and 21.6 nM, respectively.

On to `O=C(N[C@H]1C[C@H]2CC[C@@H](C1)N2S(=O)(=O)N1CC2CCC(C1)N2CCCC(F)(F)F)c1cc(C2CC2)on1` [compound 914, 5-cyclopropyl-N-((1R,3r,5S)-8-((8-(4,4,4-trifluorobutyl)-3,8-diazabicyclo[3.2.1]octan-3-yl)sulfonyl)-8-azabicyclo[3.2.1]octan-3-yl)isoxazole-3-carboxamide], for which the values for the half-inhibitory concentration (IC50) in test [1] and in test [2] were 299 nM and 22.9 nM, respectively.

Take `C[C@H]1CN(S(=O)(=O)N2[C@@H]3CC[C@H]2C[C@@H](NC(=O)c2cc(C4CC4)on2)C3)[C@@H](C)CN1` [compound 915, 5-cyclopropyl-N-((1R,3S,5S)-8-(((2S,5S)-2,5-dimethylpiperazin-1-yl)sulfonyl)-8-azabicyclo[3.2.1]octan-3-yl)isoxazole-3-carboxamide]: the IC50 in test [1] is 231 nM; in test [2] it was 23.2 nM.

The values above are taken from patent publication US10577363B2, “Substituted piperidine compounds” (EPIZYME, INC., priority 2014, dated 2020).
